Tests used:
[1] = (§1) Inhibition of GABA-T; set-up: species or system Rattus norvegicus
Rattus norvegicus = organism: Rattus norvegicus; experiment: as §1

Ki [1]: 470 µM
Activity (Rattus norvegicus): Time-dependent effect
Structure (SMILES): C=CC(=O)c1ccc(O)cc1

— ChEMBL document CHEMBL1138942, “Inactivation of GABA transaminase by 4-acryloylphenol” (Bioorg Med Chem Lett, 2006)
